Assays:
[1] = test system: Onchocerca gutturosa adult male worms; assay: Onchocerca gutturosa in vitro screening model: adult worm motility score and MTT/formazan viability; type: cell-based; conditions: read-out: O. gutt Activity class
Dirofilaria immitis = assay: Heartworm screen Dirofilaria immitis (stage DiMF/DiL4 not specified in the tables); type: cell-based; conditions: read-out: D. immitis Activity class

| Structure (SMILES) | IC50 [1] | IC50 (Dirofilaria immitis) |
| --- | --- | --- |
| CCn1ccnc1S(=O)(=O)Nc1cc(F)cc2cccnc12 [Compound 107, 1-ethyl-N-(6-fluoroquinolin-8-yl)-1H-imidazole-2-sulfonamide] | < 200 nM | 200 to 500 nM |
| Cc1cccnc1S(=O)(=O)Nc1cccc2ccc(C3CC3)nc12 [Compound 26, N-(2-cyclo-propylquin-olin-8-yl)-3-methylpyr-idine-2-sulfonamide] | 500 to 5000 nM | 500 to 5000 nM |
| CCn1ccnc1S(=O)(=O)Nc1c(OC)ccc2cccnc12 [Compound 84, 1-ethyl-N-(7-methoxyquin-olin-8-yl)-1H-imidazole-2-sulfonamide] | < 200 nM | 200 to 500 nM |
| Cc1ccc(S(=O)(=O)Nc2cccc3nccnc23)nc1 [Compound 196, 5-methyl-N-(quinoxalin-5-yl)pyridine-2-sulfonamide] | 200 to 500 nM | 200 to 500 nM |
| O=S(=O)(Nc1ccc(F)c2cccnc12)c1ncccc1C1CC1 [Compound 48, 3-cyclo-propyl-N-(5-fluoroquin-olin-8-yl)-pyridine-2-sulfonamide] | < 200 nM | 500 to 5000 nM |
| Cc1ccc(S(=O)(=O)Nc2cccc3c(Cl)ccnc23)nc1 [Compound 119, N-(4-chloro-quinolin-8-yl)-5-methylpyr-idine-2-sulfon-amide] | < 200 nM | 500 to 5000 nM |
| Cc1cccc(S(=O)(=O)Nc2cccc3cccnc23)n1 [Compound 272, 6-methyl-N-(quinolin-8-yl)pyridine-2-sulfonamide] | < 200 nM | 500 to 5000 nM |
| CC(C)Oc1ccc(S(=O)(=O)Nc2cccc3cccnc23)nc1 [Compound 242, 5-isopropoxy-N-(quinolin-8-yl)pyridine-2-sulfonamide] | < 200 nM | 200 to 500 nM |
| Cc1ccc(S(=O)(=O)Nc2c(Cl)ccc3cccnc23)nc1 [Compound 114, N-(7-chloro-quinolin-8-yl)-5-methylpyr-idine-2-sulfon-amide] | < 200 nM | 500 to 5000 nM |
| CCn1ccc(S(=O)(=O)Nc2cccc3cccnc23)n1 [Compound 193, 1-ethyl-N-(quinolin-8-yl)-1H-pyrazole-3-sulfonamide] | 200 to 500 nM | 500 to 5000 nM |
| Cc1nc(Cl)ccc1S(=O)(=O)Nc1cccc2cccnc12 [Compound 179, 6-chloro-2-methyl-N-(quinolin-8-yl)pyridine-3-sulfonamide] | < 200 nM | 500 to 5000 nM |
| Cc1cccnc1S(=O)(=O)Nc1cccc2c(OCC3CC3)ccnc12 [Compound 28, N-(4-(cyclo-propylmeth-oxy)quinolin-8-yl)-3-meth-ylpyridine-2-sulfonamide] | 500 to 5000 nM | 500 to 5000 nM |
| Cc1ccc(S(=O)(=O)Nc2cccc3cc(C)cnc23)nc1 [Compound 113, 5-methyl-N-(3-methyl-quinolin-8-yl)-pyridine-2-sulfonamide] | < 200 nM | 200 to 500 nM |
| Cc1ccc(S(=O)(=O)Nc2ccc(C)c3cccnc23)nc1 [Compound 58, 5-methyl-N-(5-methyl-quinolin-8-yl)pyridine-2-sulfonamide] | 200 to 500 nM | 500 to 5000 nM |
| O=S(=O)(Nc1cccc2cccnc12)c1ccnc(C(F)(F)F)c1 [Compound 158, N-(quinolin-8-yl)-2-(trifluoromethyl) pyridine-4-sulfonamide] | 200 to 500 nM | 500 to 5000 nM |
| O=S(=O)(Nc1cccc2cccnc12)c1cnccn1 [Compound 271, N-(quinolin-8-yl)pyrazine-2-sulfonamide] | < 200 nM | 500 to 5000 nM |
| Cc1cc(S(=O)(=O)Nc2cccc3cccnc23)cc(C)n1 [Compound 186, 2,6-dimethyl-N-(quinolin-8-yl)pyridine-4-sulfonamide] | 200 to 500 nM | 500 to 5000 nM |
| Cc1cccnc1S(=O)(=O)Nc1cccc2cc(N3CCOCC3)cnc12 [Compound 21, 3-methyl-N-(3-morpho-linoquinolin-8-yl)pyridine-2-sulfonamide] | < 200 nM | 500 to 5000 nM |
| N#Cc1ccc(-c2cccc(S(=O)(=O)Nc3cccc4cccnc34)n2)cc1 [Compound 178, 6-(4-cyanophenyl)-N-(quinolin-8-yl)pyridine-2-sulfonamide] | < 200 nM | 500 to 5000 nM |
| O=S(=O)(Nc1c(Cl)ccc2cccnc12)c1ncccc1F [Compound 98, N-(7-chloro-quinolin-8-yl)-3-fluoro-pyridine-2-sulfonamide] | < 200 nM | 500 to 5000 nM |
| CC(C)Oc1ccnc(S(=O)(=O)Nc2cccc3cccnc23)c1 [Compound 245, 4-isopropoxy-N-(quinolin-8-yl)pyridine-2-sulfonamide] | < 200 nM | 200 to 500 nM |
| Cc1ccc(S(=O)(=O)Nc2cc(C)cc3cccnc23)nc1 [Compound 127, 5-methyl-N-(6-methylquin-olin-8-yl)pyr-idine-2-sulfon-amide] | < 200 nM | 200 to 500 nM |
| COc1nccc(S(=O)(=O)Nc2cccc3cccnc23)n1 [Compound 197, 2-methoxy-N-(quinolin-8-yl)pyrimidine-4-sulfonamide] | 200 to 500 nM | 500 to 5000 nM |
| COc1cc(NS(=O)(=O)c2ccc(C)cn2)c2ncccc2c1 [Compound 125, N-(6-methoxy-quinolin-8-yl)-5-methylpyr-idine-2-sulfon-amide] | < 200 nM | 500 to 5000 nM |

| Structure (SMILES) | IC50 [1] | IC50 (Dirofilaria immitis) |
| --- | --- | --- |
| Cc1ccc(S(=O)(=O)Nc2cccc3cccnc23)c(Cl)n1 [Compound 188, 2-chloro-6-methyl-N-(quinolin-8-yl)pyridine-3-sulfonamide] | < 200 nM | 500 to 5000 nM |
| CCn1ccnc1S(=O)(=O)Nc1c(C)ccc2cccnc12 [Compound 102, 1-ethyl-N-(7-methylquin-olin-8-yl)-1H-imidazole-2-sulfonamide] | < 200 nM | 200 to 500 nM |
| Cc1ncccc1S(=O)(=O)Nc1cccc2cccnc12 [Compound 155, 2-methyl-N-(quinolin-8-yl)pyridine-3-sulfonamide] | 500 to 5000 nM | 500 to 5000 nM |
| CC(C)(C)c1ccc(S(=O)(=O)Nc2cccc3cccnc23)cn1 [Compound 159, 6-tert-butyl-N-(quinolin-8-yl)pyridine-3-sulfonamide] | < 200 nM | 200 to 500 nM |
| Cc1nc(S(=O)(=O)Nc2cccc3cccnc23)ccc1Cl [Compound 184, 5-chloro-6-methyl-N-(quinolin-8-yl)pyridine-2-sulfonamide] | < 200 nM | 200 to 500 nM |
| N#CCc1cccc(S(=O)(=O)Nc2cccc3cccnc23)n1 [Compound 150, 6-(cyanomethyl)-N-(quinolin-8-yl)pyridine-2-sulfonamide] | 200 to 500 nM | 500 to 5000 nM |
| O=S(=O)(Nc1cccc2cccnc12)c1ccc(C(F)F)nc1 [Compound 153, 6-(difluoromethyl)-N-(quinolin-8-yl)pyridine-3-sulfonamide] | 500 to 5000 nM | 500 to 5000 nM |
| Cc1cccnc1S(=O)(=O)Nc1cccc2c(-c3ccccc3)ccnc12 [Compound 30, 3-methyl-N-(4-phenyl-quinolin-8-yl)pyridine-2-sulfonamide] | 500 to 5000 nM | 500 to 5000 nM |
| Cc1ncc(S(=O)(=O)Nc2cccc3cccnc23)cc1Cl [Compound 180, 5-chloro-6-methyl-N-(quinolin-8-yl)pyridine-3-sulfonamide] | 500 to 5000 nM | 500 to 5000 nM |
| Nc1cccc(S(=O)(=O)Nc2cccc3cccnc23)n1 [Compound 264, 6-amino-N-(quinolin-8-yl)pyridin-2-sulfonamide] | 500 to 5000 nM | 500 to 5000 nM |
| CCn1ccnc1S(=O)(=O)Nc1cccc2cc(OC)cnc12 [Compound 86, 1-ethyl-N-(3-methoxyquin-olin-8-yl)-1H-imidazole-2-sulfonamide] | < 200 nM | 200 to 500 nM |
| O=S(=O)(Nc1cccc2cccnc12)c1nccn1C1(C(F)(F)F)CC1 [Compound 168, N-(quinolin-8-yl)-1-(1-(trifluoromethyl)cyclopropyl)-1H-imidazole-2-sulfonamide] | < 200 nM | 200 to 500 nM |
| O=S(=O)(Nc1cccc2cccnc12)c1ccccn1 [Compound 280, N-(quinolin-8-yl)pyridine-2-sulfonamide] | 500 to 5000 nM | 200 to 500 nM |
| CCn1ccnc1S(=O)(=O)Nc1ccc(Cl)c2cccnc12 [Compound 110, N-(5-chloro-quinolin-8-yl)-1-ethyl-1H-imidazole-2-sulfonamide] | 200 to 500 nM | 200 to 500 nM |
| O=S(=O)(Nc1cccc2cccnc12)c1ccc(C(F)(F)F)nc1 [Compound 190, N-(quinolin-8-yl)-6-(trifluoromethyl) pyridine-3-sulfonamide] | < 200 nM | < 200 nM |
| CCn1cc(C)nc1S(=O)(=O)Nc1cccc2cccnc12 [Compound 191, 1-ethyl-4-methyl-N-(quinolin-8-yl)-1H-imidazole-2-sulfonamide] | < 200 nM | 200 to 500 nM |
| O=S(=O)(Nc1cccc2cccnc12)c1nccn1C1CC1C(F)(F)F (centres unmarked) [Compound 171, N-(quinolin-8-yl)-1-(2-(trifluoromethyl)cyclopropyl)-1H-imidazole-2-sulfonamide] | < 200 nM | 200 to 500 nM |
| Cc1ccc(S(=O)(=O)Nc2cccc3cc(F)cnc23)nc1 [Compound 87, N-(3-fluoro-quinolin-8-yl)-5-methyl-pyridine-2-sulfonamide] | < 200 nM | 200 to 500 nM |
| O=S(=O)(Nc1cccc2cccnc12)c1cccnc1C(F)(F)F [Compound 146, N-(quinolin-8-yl)-2-(trifluoromethyl) pyridine-3-sulfonamide] |  | 500 to 5000 nM |
| CCn1ccnc1S(=O)(=O)Nc1cccc2cc(C(C)=O)cnc12 [Compound 287, N-(3-acetylquinolin-8-yl)-1-ethyl-1H-imidazole-2-sulfonamide] |  | 200 to 500 nM |
| Cc1cnc(S(=O)(=O)Nc2cccc3cccnc23)n1C [Compound 233, 1,5-dimethyl-N-(quinolin-8-yl)-1H-imidazole-2-sulfonamide] |  | 200 to 500 nM |
| CCn1ccnc1S(=O)(=O)Nc1cccc2c(-c3ccccc3)ccnc12 [Compound 291, 1-ethyl-N-(4-phenylquinolin-8-yl)-1H-imidazole-2-sulfonamide] |  | < 200 nM |
| COc1ccc(S(=O)(=O)Nc2cccc3cccnc23)cn1 [Compound 144, 6-methoxy-N-(quinolin-8-yl)pyridine-3-sulfonamide] |  | 500 to 5000 nM |

Source: patent publication US20240148744A1 (Celgene Corporation, priority 2021, published 2024)
